{
  "source": "patent US11891623B2",
  "about": "“Generation of neural stem cells from human trophoblast stem cells” (Accelerated BioSciences Corp., priority 2010, dated 2024)",
  "key": {"6-OHDA-induced PD rats": {"test_system": "6-OHDA-induced PD rats", "experiment": "Immunofluorescence tissue analysis of regeneration of the dopaminergic nigrostriatal pathway", "format": "in vivo", "method": "To obtain the brain sections, rats were anesthetized by sodium pentobarbitone (60 mg/kg i.p., Apoteksbolaget, Sweden) and trans-cardially perfused with saline (50 ml, 0.9% w/v) followed by ice-cold paraformaldehyde (200 ml, 10% w/v in 0.02 M PBS) were performed at 18- and 12-week in the acute and chronic PD rats, respectively. Brain sections were subjected for immunocytochemistry, immunohistochemistry, and immunofluorescence tissue analysis as indicated.\nTo further verify the regeneration of the dopaminergic nigrostriatal pathway after cell therapy, immunofluorescence tissue analysis was performed (TissueGnostics Gmbh, Vienna, Austria). Brain sections were investigated, including 14 acute PD rats (i.e., 2 at 1-week and 2 at 6-week post-injury and 2 controls, 6 at 12-weeks after cell transplantation and 2 controls) and 4 chronic PD rats (i.e., 2 at 12-week after cell therapy and 2 controls). In the SNC, 6-OHDA caused progressive neural degeneration, resulting in various sizes of cavity at 6 weeks post-injury (FIG. 31)."}, "Huh-7 cells": {"test_system": "Huh-7 cells", "experiment": "BBP-induced signaling in Huh-7 cells (RT-PCR, Western blot, immunofluorescence)", "format": "cell-based, human", "conditions": "PD98059 20 μM, 1 h pretreatment", "method": "Huh-7 cells (3×10^5) were seeded into a 6-well dish and incubated for 24 h. Cells cultured serum-free medium overnight were treated with BBP (1 μM) for various time intervals. After BBP stimulation, cells were washed twice with PBS. Total RNAs were extracted by TRIzol methods (Invitrogen). RNA (2 μg) was used to synthesize cDNA by Reverse Transcription System (Promega). The c-DNAs were amplified by the specific primers. The primer pairs were designed as follows: AhR, forward 5′-TACTCTGCCGCCCAAACTGG-3′ (SEQ ID NO:49), reverse 5′-GCTCTGCAACCTCCGATTCC-3′ (SEQ ID NO:50); β-actin, forward 5′-CTC GCT GTC CAC CTT CCA-3′ (SEQ ID NO:51), reverse 5′-GCT GTC ACC TTC ACC GTTC-3′ (SEQ ID NO:52). PCR conditions were set at 95° C. for 5 min and 95° C. for 30 sec, 54° C. for 30 sec, 72° C. for 1 min followed by 72° C. for 10 min (36 cycles). The products were separated by 2% agarose gels and visualized by ethidium bromide.\nHuh-7 cells (1×10^6) were seeded into 10 cm dish and cultured overnight. The culture medium was changed to serum-free medium for another night. Cells were treated with BBP (1 μM) for various time intervals. […] Cells were then washed twice with ice-cold PBS and lysed by RIPA lysis buffer (Minipore). Protein concentration was measured by BCA protein assay kit (Thermo). Equal amounts of protein (30 μg protein) were resolved by 8% SDS-PAGE, transferred onto PVDF membrane, and blocked with 5% non-fat dry milk for 1 h at room temperature. After blocking, the membrane was incubated with the primary antibodies including AhR (1:1000), Cox-2 (1:1000), Gαq/11 (1:100), Gβ (1:100), β-actin (1:5000), p44/42 MAP kinase (1:1000) or phospho-p44/42 MAP kinase (1:1000) overnight at 4° C. Cells were washed three times with PBST and then incubated with HRP conjugated secondary antibodies for 1 h at room temperature. After washing, the blot was visualized using an enhanced chemiluminescence kit (ECL) (Amersham).\nCells with or without transfection by AhR siRNA were cultured and treated with BBP (1 μM) for 5 and 15 min each. After treatment with primary and secondary antibodies for AhR and Gαq/11, cells were subjected to confocal immunofluorescence microscopy to analyze the dynamic movement in the cell compartments."}, "hTS cells": {"test_system": "hTS cells", "experiment": "LIF dose effect on pluripotency transcription factors in hTS cells (RT-PCR, qPCR, flow cytometry)", "format": "cell-based, human", "method": "The differential gene expressions of Oct4, Sox2, NANOG, fgfr2, FGF4, BMP4, Cdx2, and endogenous control β-actin (ACTB) were measured in the hTS and the hTS cells treated by 500 units LIF (Chemicon, Temecula, CA) by IQ5 Real-time PCR detection system (Bio-Rad Laboratories) that using fluorescein as an internal passive reference dye for normalization of well-to-well optical variation. PCR amplifications were carried out in a total volume of 25 μl, containing 12.5 μl of 2×SYBR Green supermix (Bio-Rad), 0.5 μl of 10 μM of each primer and 0.5 μl of cDNA samples and mixed with sterile water. The reaction was initiated at 95° C., 3 minutes, followed by 60 three-step amplification cycles consisting of 30 s denaturation at 95° C., 30 s annealing at 60° C., 15 s extension at 72° C. At final dissociation stage, it was run to generate a melting curve for verification of amplification product specificity. Real-time qPCR was monitored and analyzed by the Bio-Rad IQ5 optical system software version 2.0 (Bio-Rad). Relative mRNA levels were calculated using the comparative Ct method (Bio-Rad instruction manual) and presented with ratio to biological controls. ACTB transcript levels were confirmed to correlate well with total RNA amounts and therefore used for normalization throughout. All primer pairs used were confirmed to approximately double the amount of product within one cycle and to yield a single product of the predicted size. Primer sequences of Oct4, Sox2, NANOG, fgfr2, FGF4, BMP4, Cdx2, and endogenous control β-actin (ACTB) are shown in Supplemental Data Table 3.\nCells (5×10^6 cells/ml) were incubated with a variety of primary antibodies for 30 min and then incubated with the appropriate fluorescein isothiocyanate (FITC)-, phycoerythrin (PE)- or Rho-conjugated secondary antibody (Jackson ImmunoResearch, West Grove, PA) at adjusted dilution for 1 h at 4° C. After thorough washing, cells were re-suspended in PBS (1 ml) and subjected to flow cytometry (FACScan, BD Biosciences, San Jose, CA). The data were analyzed with Cell-Quest software (BD Biosciences).\nThe effects of LIF withdrawal on human trophoblast stem (hTS) cells were examined since hTS cells expresses pluripotent gene markers of both embryonic stem (ES) cells and trophoblastic stem (TS) cells such as Oct4, Nanog, Sox2, and Cdx2 (FIG. 1a). hTS cells were treated with different dosages of LIF, i.e., 500 (mimic at ampulla), 250 (mimic at mid-portion), and 125 units (mimic at isthmus) for 3 days each, showing that LIF promoted Oct4 expression but represses Cdx2, Nanog, and Sox2 expressions in a dose-dependent manner (FIG. 1b). Quantitative PCR analyses supported these findings (FIG. 1c). As the relative expression ratio of Oct4 to Cdx2 enables to determine cell fate in early embryonic differentiation (Niwa et al., 2000), the Oct4/Cdx2 ratio ([…]) appeared to be the highest at the ampulla which decreased to 0.2-fold at mid-portion and became near one at isthmic portion (FIG. 1d). This decreasing trend of Oct4/Cdx2 ratio actually facilitates the differentiation towards trophectoderm fate (Niwa et al., 2005). […] This role of rescuer was further supported by the prominently high Nanog/Oct4 ratio of LIF with 125 units compared to the ratio of LIF with 500 units and the apparent increase of Cdx2/Oct4 ratio at LIF with 125 units (FIG. 1e) No apparent change of Sox2/Cdx2 was found."}},
  "data": [
    {"compound": "NCCc1cc(O)c(O)cc1O", "note": "[6-OHDA, 6-hydroxydopamine]", "values": [
      {"measurement": "DA (TH+) neurons in SNC compared to intact side", "setting": "6-OHDA-induced PD rats; 1-week post-injury", "value": 48, "unit": "%"},
      {"measurement": "DA (TH+) neurons in striatum compared to intact side", "setting": "6-OHDA-induced PD rats; 1-week post-injury", "value": 78, "unit": "%"},
      {"measurement": "DA (TH+) neurons in SNC compared to intact side", "setting": "6-OHDA-induced PD rats; 6-week post-injury", "value": 13, "unit": "%"},
      {"measurement": "DA (TH+) neurons in striatum compared to intact side", "setting": "6-OHDA-induced PD rats; 6-week post-injury", "value": 4, "unit": "%"},
      {"measurement": "GFAP(+) cells in lesioned striatum compared to intact side", "setting": "6-OHDA-induced PD rats; 6 weeks post-injury", "value": 65.5, "unit": "%"}
    ]},
    {"compound": "COc1cccc(-c2cc(=O)c3ccccc3o2)c1N", "note": "[PD98059]", "values": [
      {"measurement": "BBP-induced ERK phosphorylation and COX-2 activation", "setting": "Huh-7 cells", "value": "blocked"}
    ]},
    {"compound": "leukemia inhibitory factor [LIF]", "values": [
      {"measurement": "Oct4/Cdx2 ratio", "setting": "hTS cells; LIF 125 units (mimic at isthmus), 3 days", "value": "one"},
      {"measurement": "Nanog/Cdx2 ratio", "setting": "hTS cells; LIF 125 units, 3 days", "value": 2, "unit": "fold"},
      {"measurement": "Oct4/Cdx2 ratio", "setting": "hTS cells; LIF 250 units (mimic at mid-portion), 3 days", "value": 0.2, "unit": "fold"},
      {"measurement": "Oct4 expression", "setting": "hTS cells; LIF 500, 250, 125 units, 3 days", "value": "promoted"},
      {"measurement": "Cdx2, Nanog, and Sox2 expressions", "setting": "hTS cells; LIF 500, 250, 125 units, 3 days, dose-dependent", "value": "represses"},
      {"measurement": "Oct4/Cdx2 ratio", "setting": "hTS cells; LIF 500 units (mimic at ampulla), 3 days", "value": 0.4, "unit": "fold"},
      {"measurement": "Nanog/Cdx2 ratio", "setting": "hTS cells; LIF 500 units, 3 days", "value": 0.1, "unit": "fold"},
      {"measurement": "Nanog expression", "setting": "hTS cells; LIF-induced cells, isthmus level (125 U/ml), flow cytometry", "value": 62.5, "unit": "%"},
      {"measurement": "RA-induced Nanog expression", "setting": "hTS cells; hTS cells preincubated with RA (10 μM) overnight, then LIF 125, 250, 500 U/ml 1 day, flow cytometry", "value": "suppresses"}
    ]}
  ]
}
